Data from patent publication US20040266623A1, “SYNERGISTIC QUINCLORAC HERBICIDAL COMPOSITIONS” (priority 2003, published 2004).

Legend:
dandelion = assay: Greenhouse pot test, postemergent spray, visual control rating converted to percent control; type: in vivo
Summary of the method: (§1)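 Potted plants in soilless greenhouse medium were sprayed at 43.46 gallons of spray solution/acre and kept in the greenhouse. Effects were rated visually on a 1–9 scale (1 = no control, 9 = plant death) at 24, 48 and 72 HAT and 7, 14 and 21 DAT, then converted to percent control.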

crabgrass = assay: as above; type: in vivo; details: Test 1, 7 DAT
Summary of the method: as §1

O=C(O)c1c(Cl)ccc2cc(Cl)cnc12 [Quinclorac, 3,7-dichloro-8-quinolinecarboxylic acid]
% Control Dandelion (dandelion; Test 1, 7 DAT, 0.18 lbs/A): 33.3%
Control (1-9) Dandelion (dandelion; Test 1, 7 DAT, 0.18 lbs/A): 3
% Control Dandelion (dandelion; Test 1, 7 DAT, 0.375 lbs/A): 33.3%
Control (1-9) Dandelion (dandelion; Test 1, 7 DAT, 0.375 lbs/A): 3
% Control Dandelion (dandelion; Test 1, 7 DAT, 0.75 lbs/A): 33.3%
Control (1-9) Dandelion (dandelion; Test 1, 7 DAT, 0.75 lbs/A): 3
% Control Dandelion (dandelion; Test 1, 14 DAT, 0.18 lbs/A): 88.9%
Control (1-9) Dandelion (dandelion; Test 1, 14 DAT, 0.18 lbs/A): 8
% Control Dandelion (dandelion; Test 1, 14 DAT, 0.375 lbs/A): 77.8%
Control (1-9) Dandelion (dandelion; Test 1, 14 DAT, 0.375 lbs/A): 7
% Control Dandelion (dandelion; Test 1, 14 DAT, 0.75 lbs/A): 66.7%
Control (1-9) Dandelion (dandelion; Test 1, 14 DAT, 0.75 lbs/A): 6
% Control Dandelion (dandelion; Test 1, 24 HAT, 0.18 lbs/A): 22.2%
Control (1-9) Dandelion (dandelion; Test 1, 24 HAT, 0.18 lbs/A): 2
% Control Dandelion (dandelion; Test 1, 24 HAT, 0.375 lbs/A): 11.1%
Control (1-9) Dandelion (dandelion; Test 1, 24 HAT, 0.375 lbs/A): 1
% Control Dandelion (dandelion; Test 1, 24 HAT, 0.75 lbs/A): 11.1%
Control (1-9) Dandelion (dandelion; Test 1, 24 HAT, 0.75 lbs/A): 1
% Control Dandelion (dandelion; Test 1, 48 HAT, 0.18 lbs/A): 33.3%
Control (1-9) Dandelion (dandelion; Test 1, 48 HAT, 0.18 lbs/A): 3
% Control Dandelion (dandelion; Test 1, 48 HAT, 0.375 lbs/A): 33.3%
Control (1-9) Dandelion (dandelion; Test 1, 48 HAT, 0.375 lbs/A): 3
% Control Dandelion (dandelion; Test 1, 48 HAT, 0.75 lbs/A): 33.3%
Control (1-9) Dandelion (dandelion; Test 1, 48 HAT, 0.75 lbs/A): 3
% Control Dandelion (dandelion; Test 2, 7 DAT, 0.18 lbs/A): 88.9%
Control (1-9) Dandelion (dandelion; Test 2, 7 DAT, 0.18 lbs/A): 8
% Control Dandelion (dandelion; Test 2, 7 DAT, 0.375 lbs/A): 33.3%
Control (1-9) Dandelion (dandelion; Test 2, 7 DAT, 0.375 lbs/A): 3
% Control Dandelion (dandelion; Test 2, 7 DAT, 0.75 lbs/A): 33.3%
Control (1-9) Dandelion (dandelion; Test 2, 7 DAT, 0.75 lbs/A): 3
% Control Dandelion (dandelion; Test 2, 14 DAT, 0.18 lbs/A): 88.9%
Control (1-9) Dandelion (dandelion; Test 2, 14 DAT, 0.18 lbs/A): 8
% Control Dandelion (dandelion; Test 2, 14 DAT, 0.375 lbs/A): 88.9%
Control (1-9) Dandelion (dandelion; Test 2, 14 DAT, 0.375 lbs/A): 8
% Control Dandelion (dandelion; Test 2, 14 DAT, 0.75 lbs/A): 66.7%
Control (1-9) Dandelion (dandelion; Test 2, 14 DAT, 0.75 lbs/A): 6
% Control Dandelion (dandelion; Test 2, 24 HAT, 0.18 lbs/A): 22.2%
Control (1-9) Dandelion (dandelion; Test 2, 24 HAT, 0.18 lbs/A): 2
% Control Dandelion (dandelion; Test 2, 24 HAT, 0.375 lbs/A): 22.2%
Control (1-9) Dandelion (dandelion; Test 2, 24 HAT, 0.375 lbs/A): 2
% Control Dandelion (dandelion; Test 2, 24 HAT, 0.75 lbs/A): 22.2%
Control (1-9) Dandelion (dandelion; Test 2, 24 HAT, 0.75 lbs/A): 2
% Control Dandelion (dandelion; Test 2, 72 HAT, 0.18 lbs/A): 55.6%
Control (1-9) Dandelion (dandelion; Test 2, 72 HAT, 0.18 lbs/A): 5
% Control Dandelion (dandelion; Test 2, 72 HAT, 0.375 lbs/A): 33.3%
Control (1-9) Dandelion (dandelion; Test 2, 72 HAT, 0.375 lbs/A): 3
% Control Dandelion (dandelion; Test 2, 72 HAT, 0.75 lbs/A): 33.3%
Control (1-9) Dandelion (dandelion; Test 2, 72 HAT, 0.75 lbs/A): 3
% Control Dandelion (dandelion; Test 4, 7 DAT, 0.18 lbs/A): 22.2%
Control (1-9) Dandelion (dandelion; Test 4, 7 DAT, 0.18 lbs/A): 2
% Control Dandelion (dandelion; Test 4, 7 DAT, 0.375 lbs/A): 22.2%
Control (1-9) Dandelion (dandelion; Test 4, 7 DAT, 0.375 lbs/A): 2
% Control Dandelion (dandelion; Test 4, 7 DAT, 0.75 lbs/A): 22.2%
Control (1-9) Dandelion (dandelion; Test 4, 7 DAT, 0.75 lbs/A): 2
% Control Dandelion (dandelion; Test 4, 14 DAT, 0.18 lbs/A): 22.2%
Control (1-9) Dandelion (dandelion; Test 4, 14 DAT, 0.18 lbs/A): 2
% Control Dandelion (dandelion; Test 4, 14 DAT, 0.375 lbs/A): 22.2%
Control (1-9) Dandelion (dandelion; Test 4, 14 DAT, 0.375 lbs/A): 2
% Control Dandelion (dandelion; Test 4, 14 DAT, 0.75 lbs/A): 22.2%
Control (1-9) Dandelion (dandelion; Test 4, 14 DAT, 0.75 lbs/A): 2
% Control Crabgrass (crabgrass; 0.18 lbs/A): 44.4%
Control (1-9) Crabgrass (crabgrass; 0.18 lbs/A): 4
% Control Crabgrass (crabgrass; 0.375 lbs/A): 44.4%
Control (1-9) Crabgrass (crabgrass; 0.375 lbs/A): 4
% Control Crabgrass (crabgrass; 0.75 lbs/A): 44.4%
Control (1-9) Crabgrass (crabgrass; 0.75 lbs/A): 4
